US20220274973A1, “Methods And Compositions For Treating Sickle Cell Disease With A Ferroportin Inhibitor (VIT-2763)” (Vifor (International) AG, priority 2019, published 2022)

Test: Rodent PK studies, oral dosing
Assay type: in vivo

SMILES: O=C(NCc1ncccc1F)c1coc(CCNCCc2nc3ccccc3[nH]2)n1 [Compound 127]
- systemic availability: systemically available
